Reference: patent US8778919B2, “Cyclic anilino—pyridinotriazines” (Janssen Pharmaceutica NV, priority 2005, dated 2014)

Experiments:
Format in all cases: biochemical
[1] = target: CDK1/cyclinB (h) (Homo sapiens, UniProt P06493); test: Kinase profiling C3.2 CDK1/cyclinB human; details: test concentration of 10^−6 M
Experimental: (§1) The in vitro inhibition of a panel of kinases was assessed using either the glass-fiber filter technology as described by Davies, S. P. et al., Biochem J. (2000), 351; p. 95-105. In the glass-fiber filter technology the activity of the kinase of interest is measured using an appropriate substrate that is incubated with the aforementioned kinase protein in the presence of (^33P) radiolabeled ATP. (^33P) Phosporylation of the substrate is subsequently measured as radioactivity bound on a glassfiber-filter.
(§2) All kinases are pre-diluted to a 10× working concentration prior to addition into the assay. The composition of the dilution buffer for each kinase is detailed below.
(§3) All substrates are dissolved and diluted to working stocks in de-ionised water, apart from histone H1 that is stored in 10× working stock in 20 mM MOPS pH 7.4.
(§4) In a final reaction volume of 25 μl, CDK1/cyclinB (h) (5-10 mU) is incubated with 8 mM MOPS pH 7.0, 0.2 mM EDTA, 0.1 mg/ml histone H1, 10 mM MgAcetate and [γ-^33P-ATP] (specific activity approx. 500 cpm/pmol, concentration as required). The reaction is initiated by the addition of the MgATP mix. After incubation for 40 minutes at room temperature, the reaction is stopped by the addition of 5 μl of a 3% phosphoric acid solution. 10 μl of the reaction is then spotted onto a P30 filtermat and washed three times for 5 minutes in 75 mM phosphoric acid and once in methanol prior to drying and scintillation counting.

[2] = target: CDK6/cyclinD3 human (Homo sapiens, UniProt Q00534); test: Kinase profiling C3.7 CDK6/cyclinD3 human; details: CDK6/cyclinD3, test concentration of 10^−6 M
Chain of CDK6/cyclinD3 human (Q00534 whole entry): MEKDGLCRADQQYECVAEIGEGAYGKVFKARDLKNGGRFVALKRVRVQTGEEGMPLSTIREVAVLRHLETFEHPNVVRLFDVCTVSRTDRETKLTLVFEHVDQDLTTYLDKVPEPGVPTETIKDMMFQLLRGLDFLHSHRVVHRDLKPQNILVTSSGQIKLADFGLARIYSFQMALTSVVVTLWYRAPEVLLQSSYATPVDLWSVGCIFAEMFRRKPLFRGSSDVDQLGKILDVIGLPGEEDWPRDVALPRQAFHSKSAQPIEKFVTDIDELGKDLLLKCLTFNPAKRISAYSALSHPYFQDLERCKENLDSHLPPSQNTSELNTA
Chain of CDK6/cyclinD3 human (P30281 whole entry partner): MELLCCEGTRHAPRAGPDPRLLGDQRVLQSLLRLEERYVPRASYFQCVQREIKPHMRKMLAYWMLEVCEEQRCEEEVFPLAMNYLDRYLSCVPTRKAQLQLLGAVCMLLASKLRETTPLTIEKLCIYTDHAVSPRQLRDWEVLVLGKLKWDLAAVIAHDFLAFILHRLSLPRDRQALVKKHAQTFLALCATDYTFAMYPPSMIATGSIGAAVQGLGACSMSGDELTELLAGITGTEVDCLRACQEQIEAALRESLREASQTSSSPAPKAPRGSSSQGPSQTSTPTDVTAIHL
Experimental: as §1, §2, §3
as §4, with “CDK6/cyclinD3 human” for “CDK1/cyclinB (h)”

[3] = target: CDK7/cyclinH/MAT1 (h) (Homo sapiens, UniProt P50613); test: Kinase profiling C3.8 CDK7/cyclinH/MAT1 human; details: CDK7/cyclinH/MAT1, test concentration of 10^−6 M
Chain of CDK7/cyclinH/MAT1 (h) (P50613 whole entry): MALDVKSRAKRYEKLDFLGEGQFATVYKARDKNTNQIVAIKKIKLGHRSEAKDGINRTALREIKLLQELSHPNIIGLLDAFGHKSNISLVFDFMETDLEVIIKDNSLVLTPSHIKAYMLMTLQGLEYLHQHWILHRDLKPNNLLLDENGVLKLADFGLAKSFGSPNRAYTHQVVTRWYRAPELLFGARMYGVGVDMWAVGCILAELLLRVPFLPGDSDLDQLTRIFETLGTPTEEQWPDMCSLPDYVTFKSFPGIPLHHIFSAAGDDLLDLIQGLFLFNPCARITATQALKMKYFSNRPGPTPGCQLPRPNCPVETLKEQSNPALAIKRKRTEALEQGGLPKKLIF
Chain of CDK7/cyclinH/MAT1 (h) (P51946 whole entry partner): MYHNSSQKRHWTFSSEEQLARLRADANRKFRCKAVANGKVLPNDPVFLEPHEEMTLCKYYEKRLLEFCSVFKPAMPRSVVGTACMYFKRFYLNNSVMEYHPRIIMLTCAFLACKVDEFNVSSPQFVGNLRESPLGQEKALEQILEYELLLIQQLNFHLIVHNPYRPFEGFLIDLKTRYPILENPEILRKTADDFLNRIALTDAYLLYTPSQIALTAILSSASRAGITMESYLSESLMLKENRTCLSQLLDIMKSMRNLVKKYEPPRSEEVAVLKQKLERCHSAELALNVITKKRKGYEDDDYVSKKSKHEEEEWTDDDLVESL
Chain of CDK7/cyclinH/MAT1 (h) (P51948 whole entry partner): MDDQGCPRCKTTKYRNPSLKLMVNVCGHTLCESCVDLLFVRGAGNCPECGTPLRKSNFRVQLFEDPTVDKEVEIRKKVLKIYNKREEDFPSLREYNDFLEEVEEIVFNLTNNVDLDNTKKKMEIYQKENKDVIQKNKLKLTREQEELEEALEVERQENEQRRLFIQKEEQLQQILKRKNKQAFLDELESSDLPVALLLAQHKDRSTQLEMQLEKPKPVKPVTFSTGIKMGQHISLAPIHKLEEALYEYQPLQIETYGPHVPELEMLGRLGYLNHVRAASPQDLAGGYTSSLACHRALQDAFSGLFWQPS
Experimental: as §1, §2, §3
as §4, with “CDK7/cyclinH/MAT1” for “CDK1/cyclinB”, “500 μM peptide,” for “0.1 mg/ml histone H1,”

[4] = target: CDK2/cyclinA (h) (Homo sapiens, UniProt P24941); test: Kinase profiling C3.3 CDK2/cyclinA human; details: test concentration of 10^−6 M
Experimental: as §1, §2, §3
as §4, with “CDK2/cyclinA” for “CDK1/cyclinB”

[5] = target: GSK-3α (Homo sapiens, UniProt P49840); test: GSK-3 kinase assay (C1), GSK-3α; details: 1 μM ATP, read-out: C1 Score α
Chain of GSK-3α (P49840 whole entry, species assumed): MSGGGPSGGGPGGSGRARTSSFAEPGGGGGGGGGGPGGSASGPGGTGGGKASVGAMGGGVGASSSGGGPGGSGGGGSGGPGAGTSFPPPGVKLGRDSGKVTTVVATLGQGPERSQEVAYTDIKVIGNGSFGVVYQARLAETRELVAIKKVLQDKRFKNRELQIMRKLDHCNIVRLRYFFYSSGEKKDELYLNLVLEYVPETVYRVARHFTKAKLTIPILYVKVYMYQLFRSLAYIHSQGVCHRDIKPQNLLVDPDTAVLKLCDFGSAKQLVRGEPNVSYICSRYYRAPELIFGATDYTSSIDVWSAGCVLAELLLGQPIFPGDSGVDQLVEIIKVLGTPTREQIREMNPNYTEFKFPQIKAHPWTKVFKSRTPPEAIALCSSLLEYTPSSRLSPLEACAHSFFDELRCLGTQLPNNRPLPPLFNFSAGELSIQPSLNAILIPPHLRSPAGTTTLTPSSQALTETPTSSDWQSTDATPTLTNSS
Experimental: (§5) In vitro GSK-3 assays were performed at room temperature in a 100 μl reaction volume of 25 mM Tris (pH 7.4) containing 10 mM MgCl2.6H2O, 1 mM DTT, 0.1 mg/ml BSA, 5% glycerol, 5.7 ng/μl GSK-3β or 0.25 ng/μl GSK-3α, 5 μM biotinylated CREB peptide, 1 μM ATP, 0.85 μCi/ml ^33P-ATP and a suitable amount of a test compound. After one hour, the reaction was terminated by adding 70 μl of Stop mix (0.1 mM ATP, 5 mg/ml streptavidin coated PVT SPA beads, pH 11.0). The beads were allowed to settle overnight and the radioactivity attached to the beads was counted in a microtiter plate scintillation counter and compared with the results obtained in a control experiment (without the presence of a test compound) in order to determine the percentage of GSK-3 inhibition. The IC50 value, i.e. the concentration (M) of the test compound at which 50% of GSK-3 is inhibited, was calculated from the dose response curve obtained by performing the above-described GSK-3 assay in the presence of different amounts of the test compound. Score 1=pIC50 value<6, Score 2=pIC50 value from 6-7, Score 3=pIC50 value from 7-8, Score 4=pIC50 value>8.

[6] = target: CDK5/p35 human (Homo sapiens, UniProt Q00535); test: Kinase profiling C3.6 CDK5/p35 human; details: CDK5/p35, test concentration of 10^−6 M
Chain of CDK5/p35 human (Q00535 whole entry): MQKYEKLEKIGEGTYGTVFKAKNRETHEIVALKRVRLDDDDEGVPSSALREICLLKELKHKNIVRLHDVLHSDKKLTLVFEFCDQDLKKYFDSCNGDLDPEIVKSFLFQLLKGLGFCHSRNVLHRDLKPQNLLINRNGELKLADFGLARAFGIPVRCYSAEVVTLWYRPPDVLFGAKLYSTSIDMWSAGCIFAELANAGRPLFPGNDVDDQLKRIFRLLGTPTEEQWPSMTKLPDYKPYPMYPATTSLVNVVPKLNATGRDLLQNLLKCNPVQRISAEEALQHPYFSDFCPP
Chain of CDK5/p35 human (Q15078 whole entry partner): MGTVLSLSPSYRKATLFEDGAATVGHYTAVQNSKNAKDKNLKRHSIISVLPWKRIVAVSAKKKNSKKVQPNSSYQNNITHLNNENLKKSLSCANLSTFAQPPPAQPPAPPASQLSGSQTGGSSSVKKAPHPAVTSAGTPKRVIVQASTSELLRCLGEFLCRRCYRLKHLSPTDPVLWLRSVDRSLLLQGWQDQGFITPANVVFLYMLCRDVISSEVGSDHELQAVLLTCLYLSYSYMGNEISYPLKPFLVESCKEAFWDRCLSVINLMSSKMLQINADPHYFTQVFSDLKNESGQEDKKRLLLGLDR
Experimental: as §1, §2, §3
as §4, with “CDK5/p35 human” for “CDK1/cyclinB (h)”

[7] = target: CDK2/cyclinE (h) (Homo sapiens, UniProt P24941); test: Kinase profiling C3.4 CDK2/cyclinE human; details: test concentration of 10^−6 M
Experimental: as §1, §2, §3
as §4, with “CDK2/cyclinE” for “CDK1/cyclinB”

[8] = target: CDK3/cyclinE (h) (Homo sapiens, UniProt Q00526); test: Kinase profiling C3.5 CDK3/cyclinE human; details: test concentration of 10^−6 M
Experimental: as §1, §2, §3
as §4, with “CDK3/cyclinE” for “CDK1/cyclinB”

[9] = target: GSK-3β (Homo sapiens, UniProt P49841); test: GSK-3 kinase assay (C1), GSK-3β; details: 1 μM ATP; for IC50: read-out: C1 Score β
Chain of GSK-3β (P49841 whole entry, species assumed): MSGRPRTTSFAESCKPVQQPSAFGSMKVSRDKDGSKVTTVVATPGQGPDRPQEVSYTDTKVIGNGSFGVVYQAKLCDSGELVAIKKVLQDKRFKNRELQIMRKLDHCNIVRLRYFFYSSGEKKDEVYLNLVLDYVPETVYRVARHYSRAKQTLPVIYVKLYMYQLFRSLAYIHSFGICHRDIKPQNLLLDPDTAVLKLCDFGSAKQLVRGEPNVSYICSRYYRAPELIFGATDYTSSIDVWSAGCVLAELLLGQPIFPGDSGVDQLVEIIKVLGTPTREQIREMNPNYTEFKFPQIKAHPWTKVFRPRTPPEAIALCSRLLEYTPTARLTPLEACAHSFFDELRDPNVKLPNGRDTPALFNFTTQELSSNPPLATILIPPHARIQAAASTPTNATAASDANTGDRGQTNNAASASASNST
Experimental: as §5

Chain of CDK1/cyclinB (h) (P06493 whole entry): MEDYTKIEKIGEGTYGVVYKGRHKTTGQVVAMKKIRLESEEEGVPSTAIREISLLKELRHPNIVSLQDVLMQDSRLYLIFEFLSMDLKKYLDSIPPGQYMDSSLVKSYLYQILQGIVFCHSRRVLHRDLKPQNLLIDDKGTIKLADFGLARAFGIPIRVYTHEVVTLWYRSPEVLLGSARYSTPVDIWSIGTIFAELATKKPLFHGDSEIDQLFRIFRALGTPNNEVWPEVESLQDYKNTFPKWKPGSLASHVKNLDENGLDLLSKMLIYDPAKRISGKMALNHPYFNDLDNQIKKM
Chain of CDK1/cyclinB (h) (P14635 whole entry partner): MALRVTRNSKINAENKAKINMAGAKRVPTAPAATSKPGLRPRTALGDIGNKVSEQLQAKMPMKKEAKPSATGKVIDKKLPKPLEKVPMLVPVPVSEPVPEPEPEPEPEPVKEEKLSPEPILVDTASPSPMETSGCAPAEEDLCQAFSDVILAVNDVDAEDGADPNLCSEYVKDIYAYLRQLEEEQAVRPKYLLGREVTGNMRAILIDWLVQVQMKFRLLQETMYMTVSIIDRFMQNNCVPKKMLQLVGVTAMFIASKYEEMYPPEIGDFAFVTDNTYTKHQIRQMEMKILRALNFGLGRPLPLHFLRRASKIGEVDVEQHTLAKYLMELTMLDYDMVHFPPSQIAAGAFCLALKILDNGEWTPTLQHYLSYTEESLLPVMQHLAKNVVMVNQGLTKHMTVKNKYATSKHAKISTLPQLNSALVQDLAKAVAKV

SMILES	C3.2 score [1]	C3.7 score [2]	C3.8 score [3]	C3.3 score [4]	IC50 [5] [µM]	C3.6 score [6]	C3.4 score [7]	C3.5 score [8]	IC50 [9] [µM]	C1 Score β [9]
O=C1CCN2CCN(CC2)Cc2cc(Cl)cc(c2)Nc2ncnc(n2)-c2ccnc(c2)CCCN1 [Compound 37]	4 (Score 4 = >80% inhibition)	2 (Score 2 = 30-60% inhibition)	3 (Score 3 = 60-80% inhibition)	4 (Score 4 = >80% inhibition)	0.01 to 0.1	4 (Score 4 = >80% inhibition)	4 (Score 4 = >80% inhibition)	4 (Score 4 = >80% inhibition)	0.01 to 0.1	–
CN1CC(=O)NCCCc2cc(ccn2)-c2ncnc(n2)Nc2cc(Cl)ccc2C1 [Compound 31]	3 (Score 3 = 60-80% inhibition)	1 (Score 1 = 10-30% inhibition)	1 (Score 1 = 10-30% inhibition)	2 (Score 2 = 30-60% inhibition)	> 1	4 (Score 4 = >80% inhibition)	3 (Score 3 = 60-80% inhibition)	4 (Score 4 = >80% inhibition)	> 1	–
CN1CCC(=O)NCCCc2cc(ccn2)-c2ncnc(n2)Nc2cc(Cl)cc(c2)C1 [Compound 32]	4 (Score 4 = >80% inhibition)	1 (Score 1 = 10-30% inhibition)	2 (Score 2 = 30-60% inhibition)	4 (Score 4 = >80% inhibition)	0.01 to 0.1	4 (Score 4 = >80% inhibition)	4 (Score 4 = >80% inhibition)	3 (Score 3 = 60-80% inhibition)	0.01 to 0.1	–
O=C1NCCCNc2cc(ccn2)-c2ncnc(n2)Nc2cccc(c2)CN2CCC[C@@H]12 [Compound 21]	4 (Score 4 = >80% inhibition)	1 (Score 1 = 10-30% inhibition)	2 (Score 2 = 30-60% inhibition)	4 (Score 4 = >80% inhibition)	0.1 to 1	3 (Score 3 = 60-80% inhibition)	4 (Score 4 = >80% inhibition)	4 (Score 4 = >80% inhibition)	0.1 to 1	–
O=C1CN2CCN(CC2)Cc2cccc(c2)Nc2ncnc(n2)-c2cccc(c2)NCCN1 [Compound 58]	2 (Score 2 = 30-60% inhibition)	1 (Score 1 = 10-30% inhibition)	–	3 (Score 3 = 60-80% inhibition)	0.01 to 0.1	2 (Score 2 = 30-60% inhibition)	2 (Score 2 = 30-60% inhibition)	1 (Score 1 = 10-30% inhibition)	–	–

Other lines, results leading:

C3.2 score [1]	C3.7 score [2]	C3.8 score [3]	C3.3 score [4]	IC50 [5] [µM]	C3.6 score [6]	C3.4 score [7]	C3.5 score [8]	IC50 [9] [µM]	C1 Score β [9]	SMILES
4 (Score 4 = >80% inhibition)	1 (Score 1 = 10-30% inhibition)	1 (Score 1 = 10-30% inhibition)	4 (Score 4 = >80% inhibition)	0.1 to 1	2 (Score 2 = 30-60% inhibition)	4 (Score 4 = >80% inhibition)	4 (Score 4 = >80% inhibition)	0.1 to 1	–	O=C1CCN2CCN(CC2)Cc2cccc(c2)Nc2ncnc(n2)-c2ccnc(c2)NCCCN1 [Compound 22]
2 (Score 2 = 30-60% inhibition)	1 (Score 1 = 10-30% inhibition)	1 (Score 1 = 10-30% inhibition)	3 (Score 3 = 60-80% inhibition)	0.1 to 1	2 (Score 2 = 30-60% inhibition)	4 (Score 4 = >80% inhibition)	3 (Score 3 = 60-80% inhibition)	0.1 to 1	–	CN1Cc2cccc(c2)Nc2ncnc(n2)-c2ccnc(c2)NCCCNC(=O)CCN2CCC1CC2 [Compound 23]
4 (Score 4 = >80% inhibition)	2 (Score 2 = 30-60% inhibition)	3 (Score 3 = 60-80% inhibition)	4 (Score 4 = >80% inhibition)	0.01 to 0.1	4 (Score 4 = >80% inhibition)	4 (Score 4 = >80% inhibition)	4 (Score 4 = >80% inhibition)	0.01 to 0.1	–	CN1CCC(=O)NCCNc2cc(ccn2)-c2ncnc(n2)Nc2cccc(c2)C1 [Compound 17]
3 (Score 3 = 60-80% inhibition)	1 (Score 1 = 10-30% inhibition)	2 (Score 2 = 30-60% inhibition)	4 (Score 4 = >80% inhibition)	0.1 to 1	3 (Score 3 = 60-80% inhibition)	4 (Score 4 = >80% inhibition)	4 (Score 4 = >80% inhibition)	–	3 (Score 3=pIC50 value from 7-8)	CN1CCC(=O)NCCNc2cc(ccn2)-c2ncnc(n2)Nc2cccc(c2)C1 [Compound 20]
